Laboratory results reported in patent publication US20220125765A1, “PHARMACEUTICAL COMBINATIONS COMPRISING MEBENDAZOLE AND A STRONG OR MODERATE CYP1A2 INHIBITOR” (ZEPHAPHARM LTD, priority 2019, published 2022).
Like-named read-outs stand apart in the source and are kept apart here.

How the values were obtained:
OVCAR-5 = experiment: 2D monolayer CellTiter-Blue viability, ovarian cancer OVCAR-5; assay type: cell-based; conditions: for IC50: Homo sapiens; for Test/Control (%) at Drug Concentration: 72 h
Protocol: Mebendazole was tested in vitro across a panel of 12 tumor cell lines of ovarian and renal cancer by using a 2D monolayer assay. […] OVXF 899L and RXF 486L are P-gp expressing, multidrug resistant cell lines.
Anti-tumor activity is expressed as absolute and relative IC50/70 values, calculated by 4-parameter non-linear curve fit.

CYP2D6 = CYP2D6 (Homo sapiens, UniProt P10635); experiment: Cytochrome P450 reaction phenotyping, recombinant CYP2D6 (Bactosomes)
CYP2D6, sequence (P10635 whole entry, canonical isoform): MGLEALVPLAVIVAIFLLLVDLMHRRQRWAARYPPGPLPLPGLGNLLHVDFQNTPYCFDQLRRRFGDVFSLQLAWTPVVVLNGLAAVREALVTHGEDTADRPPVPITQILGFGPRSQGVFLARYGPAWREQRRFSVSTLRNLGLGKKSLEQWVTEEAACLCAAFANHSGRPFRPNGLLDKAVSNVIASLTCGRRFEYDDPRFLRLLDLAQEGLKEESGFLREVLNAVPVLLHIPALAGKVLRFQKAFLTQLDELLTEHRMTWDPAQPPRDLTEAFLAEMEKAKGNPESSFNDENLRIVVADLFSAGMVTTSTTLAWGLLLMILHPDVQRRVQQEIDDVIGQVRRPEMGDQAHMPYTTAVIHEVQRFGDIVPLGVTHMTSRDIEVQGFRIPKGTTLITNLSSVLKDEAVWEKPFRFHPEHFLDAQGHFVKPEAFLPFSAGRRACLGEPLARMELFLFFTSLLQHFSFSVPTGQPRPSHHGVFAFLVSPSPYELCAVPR
Protocol: Incubations were also performed using control Bactosomes™ (no P450 enzymes present) to reveal any non-enzymatic degradation. Control compounds known to be metabolised specifically by each P450 isoform were included. All incubations were performed singularly for each test compound.
Incubations were also performed using control Bactosomes™ (no P450 enzymes present) to reveal any non-enzymatic degradation. Control compounds known to be metabolised specifically by each P450 isoform were included. All incubations were performed singularly for each test compound. […] The reactions were stopped by transferring an aliquot of incubate to quench solvent at the appropriate time points, in a 1:3 ratio. The termination plates were centrifuged at 3,000 rpm for 20 min at 4° C. to precipitate the protein.

SXFS SK-LMS-1 = experiment: 2D monolayer CellTiter-Blue viability, soft tissue sarcoma SK-LMS-1; assay type: cell-based; conditions: 72 h
Protocol: (§1) Seventeen compounds, including mebendazole (Batch no. […] Efficacy of compounds was assessed using CellTiter-Blue® Cell Viability Assay. Anti-tumor activity is expressed as absolute and relative IC50 and IC70 values, calculated by non-linear regression analysis.

NBXF SK-N-MC = experiment: 2D monolayer CellTiter-Blue viability, neuroblastoma SK-N-MC; assay type: cell-based; conditions: 72 h
Protocol: as §1

SXFS A-204 = experiment: 2D monolayer CellTiter-Blue viability, soft tissue sarcoma A-204; assay type: cell-based; conditions: 72 h
Protocol: as §1

SXFS 1301 = experiment: 2D monolayer CellTiter-Blue viability, soft tissue sarcoma SXFS 1301; assay type: cell-based; conditions: SXFS 1301, 1.0E+00 μM, 72 h
Protocol: as §1

COC(=O)Nc1nc2ccc(C(=O)c3ccccc3)cc2[nH]1 [Mebendazole, methyl N-(6-benzoyl-1H-benzimidazol-2-yl)carbamate]
IC50 (OVCAR-5; OVCAR-5, 72 h, read-out: Abs. IC50): 865 nM | IC50 (OVCAR-5; OVCAR-5, 72 h, read-out: Rel. IC50): 732 nM | Test/Control (%) at Drug Concentration (OVCAR-5; OVCAR-5, 1.0E+00 μM): 42% | Test/Control (%) at Drug Concentration (OVCAR-5; OVCAR-5, 1.0E−01 μM): 90% | Test/Control (%) at Drug Concentration (OVCAR-5; OVCAR-5, 1.0E−02 μM): 102% | Test/Control (%) at Drug Concentration (OVCAR-5; OVCAR-5, 1.0E−03 μM): 103% | Test/Control (%) at Drug Concentration (OVCAR-5; OVCAR-5, 1.0E−04 μM): 102% | Test/Control (%) at Drug Concentration (OVCAR-5; OVCAR-5, 3.2E+00 μM): 22% | Test/Control (%) at Drug Concentration (OVCAR-5; OVCAR-5, 3.2E−01 μM): 91% | Test/Control (%) at Drug Concentration (OVCAR-5; OVCAR-5, 3.2E−02 μM): 95% | Test/Control (%) at Drug Concentration (OVCAR-5; OVCAR-5, 3.2E−03 μM): 92% | Test/Control (%) at Drug Concentration (OVCAR-5; OVCAR-5, 3.2E−04 μM): 96% | Abs. IC70 (OVCAR-5; OVCAR-5, 72 h): 1480 nM | Rel. IC70 (OVCAR-5; OVCAR-5, 72 h): 995 nM | Bot. (%) (OVCAR-5; OVCAR-5, 72 h, curve fit): 20% | Top (%) (OVCAR-5; OVCAR-5, 72 h, curve fit): 97% | Compound Remaining (% of 0 min) (CYP2D6; CYP2D6, 5 μM, 0 min): 100 % of 0 min | Compound Remaining (% of 0 min) (CYP2D6; CYP2D6, 5 μM, 5 min): 93.6 % of 0 min | Compound Remaining (% of 0 min) (CYP2D6; CYP2D6, 5 μM, 15 min): 93.3 % of 0 min | Compound Remaining (% of 0 min) (CYP2D6; CYP2D6, 5 μM, 30 min): 94.6 % of 0 min | Compound Remaining (% of 0 min) (CYP2D6; CYP2D6, 5 μM, 45 min): 90.4 % of 0 min | % compound remaining (CYP2D6; CYP2D6, 5 μM, time not stated): > 87.5% | t1/2 (CYP2D6; CYP2D6, substrate 5 μM): >2.25 h | half-life at 5 μM (CYP2D6; human, recombinant CYP2D6 (Bactosomes), pH 7.4): > 2.25 h | Test/Control (%) at Drug Concentration (SXFS SK-LMS-1; SK-LMS-1, 1.0E+00 μM): 27% | Test/Control (%) at Drug Concentration (SXFS SK-LMS-1; SK-LMS-1, 1.0E+01 μM): 9% | Test/Control (%) at Drug Concentration (SXFS SK-LMS-1; SK-LMS-1, 1.0E+02 μM): 3% | Test/Control (%) at Drug Concentration (SXFS SK-LMS-1; SK-LMS-1, 1.0E−01 μM): 80% | Test/Control (%) at Drug Concentration (SXFS SK-LMS-1; SK-LMS-1, 1.0E−02 μM): 90% | Test/Control (%) at Drug Concentration (SXFS SK-LMS-1; SK-LMS-1, 3.2E+00 μM): 16% | Test/Control (%) at Drug Concentration (SXFS SK-LMS-1; SK-LMS-1, 3.2E+01 μM): 5% | Test/Control (%) at Drug Concentration (SXFS SK-LMS-1; SK-LMS-1, 3.2E−01 μM): 45% | Test/Control (%) at Drug Concentration (SXFS SK-LMS-1; SK-LMS-1, 3.2E−02 μM): 83% | Test/Control (%) at Drug Concentration (SXFS SK-LMS-1; SK-LMS-1, 3.2E−03 μM): 101% | Test/Control (%) at Drug Concentration (NBXF SK-N-MC; 1.0E+00 μM): 33% | Test/Control (%) at Drug Concentration (NBXF SK-N-MC; 1.0E+01 μM): 1% | Test/Control (%) at Drug Concentration (NBXF SK-N-MC; 1.0E+02 μM): 0% | Test/Control (%) at Drug Concentration (NBXF SK-N-MC; 1.0E−01 μM): 90% | Test/Control (%) at Drug Concentration (NBXF SK-N-MC; 1.0E−02 μM): 88% | Test/Control (%) at Drug Concentration (NBXF SK-N-MC; 3.2E+00 μM): 6% | Test/Control (%) at Drug Concentration (NBXF SK-N-MC; 3.2E+01 μM): 1% | Test/Control (%) at Drug Concentration (NBXF SK-N-MC; 3.2E−01 μM): 38% | Test/Control (%) at Drug Concentration (NBXF SK-N-MC; 3.2E−02 μM): 100% | Test/Control (%) at Drug Concentration (NBXF SK-N-MC; 3.2E−03 μM): 101% | Test/Control (%) at Drug Concentration (SXFS A-204; A-204, 1.0E+00 μM): 45% | Test/Control (%) at Drug Concentration (SXFS A-204; A-204, 1.0E+01 μM): 28% | Test/Control (%) at Drug Concentration (SXFS A-204; A-204, 1.0E+02 μM): 10% | Test/Control (%) at Drug Concentration (SXFS A-204; A-204, 1.0E−01 μM): 79% | Test/Control (%) at Drug Concentration (SXFS A-204; A-204, 1.0E−02 μM): 96% | Test/Control (%) at Drug Concentration (SXFS A-204; A-204, 3.2E+00 μM): 35% | Test/Control (%) at Drug Concentration (SXFS A-204; A-204, 3.2E+01 μM): 20% | Test/Control (%) at Drug Concentration (SXFS A-204; A-204, 3.2E−01 μM): 60% | Test/Control (%) at Drug Concentration (SXFS A-204; A-204, 3.2E−02 μM): 83% | Test/Control (%) at Drug Concentration (SXFS A-204; A-204, 3.2E−03 μM): 114% | Test/Control (%) at Drug Concentration (SXFS 1301): 35%
